Legend:
Type in all cases: cell-based, human
IL-12p40 = experiment: LPS-stimulated IL-12p40 production in THP-1 monocytes (multiplex Luminex); parameters: key to Inhibition of LPS-stimulated IL-12p40 production: “X” signifies significant inhibition at a particular concentration; conditions: 18 hours
Protocol: (§1) Human THP-1 monocytes (ATCC TIB 202) were purchased from American Type Culture Collection (Manassas, Va.) and maintained in RPMI 1640 medium (Invitrogen, Carlsbad, Calif.) supplemented with 10% fetal bovine serum (“FBS”, Invitrogen, Carlsbad, Calif.), 100 U/mL of penicillin (Invitrogen, Carlsbad, Calif.), and 100 μg/mL of streptomycin (Invitrogen, Carlsbad, Calif.) at 37° C. in a humidified incubator with 5% CO2. THP-1 cells were pre-cultured in RPMI 1640 medium containing 10% dialyzed serum for 24 h. […] Each treatment was performed in triplicate.
(§2) Samples were analyzed using multiplex bead technology, which utilizes microspheres as the solid support for immunoassays and allows the analysis of all cytokines from each sample (D. A. Vignali, J. Immunol. Methods, Vol. 243, 243-255 (2000)). Sixteen cytokines were measured according to the manufacturer's instructions. Briefly, 50 μL of medium samples were incubated with antibody-coated capture beads overnight at 4° C. Washed beads were further incubated with biotin-labelled anti-human cytokine antibodies for 2 h at room temperature followed by incubation with streptavidin-phycoerythrin for 30 min. Samples were analyzed using Luminex 200™ (Luminex, Austin, Tex.) and Beadview software v1.0 (Upstate Cell Signaling Solutions, Temecula, Calif.). Standard curves of known concentrations of recombinant human cytokines were used to convert fluorescence units (median fluorescence intensity) to cytokine concentration in pg/mL. Only the linear portions of the standard curves were used to quantify cytokine concentrations, and in instances where the fluorescence reading exceeded the linear range of the standard curve, an appropriate dilution was performed to ensure that the concentration was in the linear portion of the curve.
(§3) All cytokine concentrations (pg/mL) were expressed as mean ±standard deviation. Statistical analysis comparing effects of treatment across groups was performed using a one-way ANOVA with a Dunnett's post-hoc comparison test using either vehicle control or LPS treatment as references. For all assays, p≦0.05 was predetermined as the criterion of statistical significance.

IL-1α = experiment: LPS-stimulated IL-1α production in THP-1 monocytes (multiplex Luminex); parameters: key to Inhibition of LPS-stimulated IL-1α production: “X” signifies significant inhibition at a particular concentration; conditions: 18 hours, THP-1 monocytes
Protocol: as §1, §2, §3

IL-1β = experiment: LPS-stimulated IL-1β production in THP-1 monocytes (multiplex Luminex); parameters: key to Inhibition of LPS-stimulated IL-1β production: “X” signifies significant inhibition at a particular concentration; conditions: 18 hours, THP-1 monocytes
Protocol: as §1, §2, §3

IL-1ra = experiment: LPS-stimulated IL-1ra production in THP-1 monocytes (multiplex Luminex); parameters: key to Inhibition of LPS-stimulated IL-1ra production: “X” signifies significant inhibition at a particular concentration; conditions: 18 hours, THP-1 monocytes
Protocol: as §1, §2, §3

IL-6 = experiment: LPS-stimulated IL-6 production in THP-1 monocytes (multiplex Luminex); parameters: key to Inhibition of LPS-stimulated IL-6 production: “X” signifies significant inhibition at a particular concentration; conditions: 18 hours, THP-1 monocytes
Protocol: as §1, §2, §3

IL-8 = experiment: LPS-stimulated IL-8 production in THP-1 monocytes (multiplex Luminex); parameters: key to Inhibition of LPS-stimulated IL-8 production: “X” signifies significant inhibition at a particular concentration; conditions: 18 hours, THP-1 monocytes
Protocol: as §1, §2, §3

IP-10 = experiment: LPS-stimulated IP-10 production in THP-1 monocytes (multiplex Luminex); parameters: key to Inhibition of LPS-stimulated IP-10 production: “X” signifies significant inhibition at a particular concentration; conditions: 18 hours, THP-1 monocytes
Protocol: as §1, §2, §3

MIP-1α = experiment: LPS-stimulated MIP-1α production in THP-1 monocytes (multiplex Luminex); parameters: key to Inhibition of LPS-stimulated MIP-1α production: “X” signifies significant inhibition at a particular concentration; conditions: 18 hours, THP-1 monocytes
Protocol: as §1, §2, §3

VEGF = experiment: LPS-stimulated VEGF production in THP-1 monocytes (multiplex Luminex); parameters: key to Inhibition of LPS-stimulated VEGF production: “X” signifies significant inhibition at a particular concentration; conditions: 30 μg/mL compound + 10 μg/mL LPS, 18 hours, THP-1 monocytes
Protocol: as §1, §2, §3

[1] = 10 μg/mL compound + 10 μg/mL LPS
[2] = 30 μg/mL compound + 10 μg/mL LPS

COc1c(N2C[C@@H]3CCCN[C@@H]3C2)c(F)cc2c(=O)c(C(=O)O)cn(C3CC3)c12 [Moxifloxacin, moxifloxacin, reference compound]
Inhibition of LPS-stimulated IL-12p40 production (IL-12p40; 1 μg/mL compound + 10 μg/mL LPS): X | Inhibition of LPS-stimulated IL-12p40 production (IL-12p40; [1]): X | Inhibition of LPS-stimulated IL-12p40 production (IL-12p40; [2]): X | Concentration at which a significant inhibitory effect was observed for IL-12p40 (IL-12p40; LPS-induced): 1 µg/mL | Inhibition of LPS-stimulated IL-1α production (IL-1α; [2]): X | Concentration at which a significant inhibitory effect was observed for IL-1α (IL-1α; LPS-induced): 30 µg/mL | Inhibition of LPS-stimulated IL-1β production (IL-1β; [2]): X | Concentration at which a significant inhibitory effect was observed for IL-1β (IL-1β; LPS-induced): 30 µg/mL | Inhibition of LPS-stimulated IL-1ra production (IL-1ra; [1]): X | Inhibition of LPS-stimulated IL-1ra production (IL-1ra; [2]): X | Concentration at which a significant inhibitory effect was observed for IL-1ra (IL-1ra; LPS-induced): 10 µg/mL | Inhibition of LPS-stimulated IL-6 production (IL-6; [1]): X | Concentration at which a significant inhibitory effect was observed for IL-6 (IL-6; LPS-induced): 10 µg/mL | Inhibition of LPS-stimulated IL-8 production (IL-8; [2]): X | Concentration at which a significant inhibitory effect was observed for IL-8 (IL-8; LPS-induced): 30 µg/mL | Inhibition of LPS-stimulated IP-10 production (IP-10; [2]): X | Concentration at which a significant inhibitory effect was observed for IP-10 (IP-10; LPS-induced): 30 µg/mL | Inhibition of LPS-stimulated MIP-1α production (MIP-1α; [2]): X | Concentration at which a significant inhibitory effect was observed for MIP-1α (MIP-1α; LPS-induced): 30 µg/mL | Inhibition of LPS-stimulated VEGF production (VEGF): X

From US20080306038A1, “Compositions and Methods for Modulating Inflammation Using Fluoroquinolones” (priority 2007, published 2008)
